Data from paper PMC9616851, “Structural mechanism of SGLT1 inhibitors” (Nature Communications, 2022).

Molecular target: T1, hSGLT1 (Homo sapiens, UniProt P13866)
T1 construct: gene SLC5A1; hSGLT1GFP-MAP17nb: GFP fused between Q581 and E582 of hSGLT1; anti-GFP nanobody fused after E57 of MAP17 (1-57); in nanodisc; with MAP17
T1 sequence (P13866 1-581): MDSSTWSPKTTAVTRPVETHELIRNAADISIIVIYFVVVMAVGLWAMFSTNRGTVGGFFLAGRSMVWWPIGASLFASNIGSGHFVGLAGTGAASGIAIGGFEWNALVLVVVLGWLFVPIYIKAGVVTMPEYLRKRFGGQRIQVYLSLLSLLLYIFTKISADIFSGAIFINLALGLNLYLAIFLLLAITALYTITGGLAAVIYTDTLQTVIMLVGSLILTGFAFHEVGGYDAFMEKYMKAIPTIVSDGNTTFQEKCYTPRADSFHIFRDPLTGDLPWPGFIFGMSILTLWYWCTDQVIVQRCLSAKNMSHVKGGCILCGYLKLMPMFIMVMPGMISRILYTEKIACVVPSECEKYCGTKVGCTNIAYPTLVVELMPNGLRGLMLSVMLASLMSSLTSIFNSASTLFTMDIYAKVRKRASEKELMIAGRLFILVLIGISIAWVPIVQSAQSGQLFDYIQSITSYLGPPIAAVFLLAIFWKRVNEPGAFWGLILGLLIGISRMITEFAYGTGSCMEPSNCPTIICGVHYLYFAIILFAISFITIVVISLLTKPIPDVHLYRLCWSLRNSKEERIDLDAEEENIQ
T1 sequence (P13866 582-664): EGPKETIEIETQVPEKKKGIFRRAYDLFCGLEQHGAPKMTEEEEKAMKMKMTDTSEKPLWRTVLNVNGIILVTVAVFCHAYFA
T1 sequence (Q13113 1-57 partner): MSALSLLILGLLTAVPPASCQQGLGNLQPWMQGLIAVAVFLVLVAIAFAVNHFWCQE
Test: cryo-EM structure at […] Å; 1-NBD-glucose uptake inhibition in cells (IC50 […] for this construct, […] for non-tagged hSGLT1)
Type: cell-based

Q: For `CS[C@H]1O[C@@H](c2ccc(C)c(Cc3ccc(CCCC(=O)NC(C)(C)C(=O)NCCN(C)C)cc3)c2)[C@H](O)[C@@H](O)[C@@H]1O` [LX2761], which IC50 is on record?
A: 2.3 nM
